Laboratory results taken from ChEMBL document CHEMBL2074535, “Differential interactions of cytochalasins with P-glycoprotein” (Oncol Res, 1995).

Legend:
[1] = biological target: T1, ATP-dependent translocase ABCB1 (Homo sapiens, UniProt P08183); assay: TP_TRANSPORTER: increase in Vinblastine intracellular accumulation (Vinblastine: 0.01-0.02 uM, Cytochalasine E: 10 uM) in MCF-7/ADR cells; type: functional, cell-based; conditions: nci/adr-res
[2] = biological target: T1, ATP-dependent translocase ABCB1; assay: TP_TRANSPORTER: increase in Vinblastine intracellular accumulation (Vinblastine: 0.01-0.02 uM, Dihydrocytochalasin B: 10 uM) in MCF-7/ADR cells; type: functional, cell-based; conditions: nci/adr-res
[3] = biological target: T1, ATP-dependent translocase ABCB1; assay: TP_TRANSPORTER: ATP hydrolysis in membranes from MCF/ADR cells; type: functional, cell membranes, Membrane

T1 sequence (P08183 whole entry): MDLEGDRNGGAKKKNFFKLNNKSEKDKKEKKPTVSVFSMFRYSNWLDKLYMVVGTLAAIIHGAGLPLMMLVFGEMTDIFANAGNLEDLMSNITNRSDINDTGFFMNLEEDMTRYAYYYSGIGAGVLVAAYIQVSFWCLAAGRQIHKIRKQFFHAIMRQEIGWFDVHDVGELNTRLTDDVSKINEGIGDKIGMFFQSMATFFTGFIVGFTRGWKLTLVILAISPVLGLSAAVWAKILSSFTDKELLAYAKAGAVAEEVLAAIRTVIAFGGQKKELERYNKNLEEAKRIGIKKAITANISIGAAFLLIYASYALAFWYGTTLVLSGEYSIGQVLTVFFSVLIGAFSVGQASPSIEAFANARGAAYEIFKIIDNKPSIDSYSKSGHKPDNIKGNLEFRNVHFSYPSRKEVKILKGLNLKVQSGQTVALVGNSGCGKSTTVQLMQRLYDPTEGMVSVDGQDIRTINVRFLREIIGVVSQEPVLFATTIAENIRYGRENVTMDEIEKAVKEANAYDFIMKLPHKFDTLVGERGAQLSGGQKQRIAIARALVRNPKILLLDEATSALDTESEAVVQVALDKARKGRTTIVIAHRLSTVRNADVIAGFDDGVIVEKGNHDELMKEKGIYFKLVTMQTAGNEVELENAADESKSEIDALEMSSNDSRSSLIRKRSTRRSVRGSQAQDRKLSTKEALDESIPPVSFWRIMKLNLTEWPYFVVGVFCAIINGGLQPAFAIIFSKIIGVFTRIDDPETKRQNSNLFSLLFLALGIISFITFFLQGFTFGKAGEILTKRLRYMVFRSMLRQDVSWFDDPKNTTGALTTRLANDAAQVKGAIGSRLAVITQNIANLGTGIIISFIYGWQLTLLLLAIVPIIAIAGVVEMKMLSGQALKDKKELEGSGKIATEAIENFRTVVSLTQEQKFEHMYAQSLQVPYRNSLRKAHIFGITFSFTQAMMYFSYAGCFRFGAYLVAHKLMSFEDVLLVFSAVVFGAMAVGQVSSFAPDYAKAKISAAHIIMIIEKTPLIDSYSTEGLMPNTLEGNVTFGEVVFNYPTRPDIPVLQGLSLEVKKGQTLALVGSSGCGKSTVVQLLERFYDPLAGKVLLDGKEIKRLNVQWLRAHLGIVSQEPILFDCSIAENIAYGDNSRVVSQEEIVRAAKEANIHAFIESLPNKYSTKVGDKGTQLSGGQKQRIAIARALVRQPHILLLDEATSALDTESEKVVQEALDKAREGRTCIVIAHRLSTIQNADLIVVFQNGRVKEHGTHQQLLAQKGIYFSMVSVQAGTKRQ

| Activity [2] [%] | Activity [3] | Structure (SMILES) | Activity [1] [%] |
| --- | --- | --- | --- |
| – | – | C[C@H]1C/C=C/[C@H]2[C@@H]3O[C@]3(C)[C@@H](C)[C@H]3[C@H](Cc4ccccc4)NC(=O)[C@]32OC(=O)O/C=C/[C@@](C)(O)C1=O [CYTOCHALASIN E] | 190 |
| 257 | substrate [+] | C=C1[C@@H](C)[C@H]2[C@H](Cc3ccccc3)NC(=O)[C@]23OC(=O)CC[C@H](O)CCC[C@@H](C)C/C=C/[C@H]3[C@@H]1O [DIHYDROCYTOCHALASIN B] | – |
